Test results published in patent US20120208853A1, “PEST CONTROL COMPOSITION” (priority 2009, published 2012).

Assays:
[1] = tested on: Plutella xylostella; test: Pesticidal effect on Plutella xylostella by bait crop immersion treatment; format: in vivo; details: 48 h, 0.8 ppm alone (Comparative Example 4-2), third-instar larvae, 2 days after, 25° C.
Experimental: Test Example 1: Pesticidal Effect on Plutella xylostella by Bait Crop Immersion Treatment
To 10 mg of the compound (1) was added 0.2 ml of acetone containing 5% of Tween 20 (product name: SOLGEN (registered trademark) TW-20, manufactured by Dai-ichi Kogyo Seiyaku Co., Ltd.) to cause dissolution, and the solution was diluted with a 5,000-fold diluted solution of a spreading agent (product name: Dine (registered trademark), manufactured by Sumitomo Chemical Garden Products Inc.) to prepare a diluted liquid of the compound (1). […] The cup was stored in a constant temperature breeding room (25° C.), and the number of dead larvae was counted 2 days after, and the mortality was determined by the following equation [1]. […]
(§1) To 10 mg of the compound (13) was added 0.2 ml of acetone containing 5% of Tween 20 (product name: SOLGEN (registered trademark) TW-20, manufactured by Dai-ichi Kogyo Seiyaku Co., Ltd.) to cause dissolution, and the solution was diluted with a 5,000-fold diluted solution of a spreading agent (product name: Dine (registered trademark), manufactured by Sumitomo Chemical Garden Products Inc.) to prepare a diluted liquid of the compound (13). […] The cup was stored in a constant temperature breeding room (25° C.), and the number of dead larvae was counted 2 days after, and the mortality was determined by the above equation [1].

[2] = tested on: Spodoptera litura; test: Pesticidal effect on Spodoptera litura by bait crop immersion treatment; format: in vivo; details: 48 h, fourth-instar larvae, 2 days after, 25° C.
Experimental: Mortality (%)=(dead larvae number/tested larvae number)×100 Equation [1]
Test Example 3: Pesticidal Effect on Spodoptera litura by Bait Crop Immersion Treatment
as §1, with “(13) or (15)” for “(13)”, “compound. A commercially available pyriproxyfen emulsifiable concentrate manufactured by Sumitomo Chemical Co., Ltd. under the product name of Lano (registered trademark) emulsifiable concentrate was diluted with a 5,000-fold diluted solution of a spreading agent (product name: Dine (registered trademark), manufactured by Sumitomo Chemical Garden Products Inc.) to prepare a diluted liquid of pyriproxyfen. These diluted liquids were mixed to prepare a test solution of prescribed concentration.” for “compound (13).”

CC(COc1ccc(Oc2ccccc2)cc1)Oc1ccccn1 (racemic) [pyriproxyfen, 4-phenoxyphenyl (RS)-2-(2-pyridyloxy)propyl ether]
mortality at 0.8 ppm [1]: 40%
mortality at 0.2 ppm ([2]; 0.2 ppm alone (Comparative Examples 5-2, 7-2)): 30%
mortality at 3.13 ppm ([2]; 3.13 ppm alone (Comparative Example 6-2)): 50%
